Laboratory results reported in ChEMBL document CHEMBL1201861, “Genomics of Drug Sensitity in Cancer screening data, Wellcome Trust Sanger Institute”.

Legend:
Test in all cases: cells
COLO-829 = type: functional, cell-based, Homo sapiens; details: Homo sapiens, COLO-829
Description: SANGER: Inhibition of human COLO-829 cell growth in a cell viability assay.

EKVX = type: functional, cell-based, Homo sapiens; details: Homo sapiens, EKVX;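 also: growth inhibition of human EKVX cells, read out with a cell viability assay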
Description: SANGER: Inhibition of human EKVX cell growth in a cell viability assay.

ES8 = type: functional, cell-based, Homo sapiens; details: Homo sapiens, ES8;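 also: growth inhibition of human ES8 cells, read out with a cell viability assay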
Description: SANGER: Inhibition of human ES8 cell growth in a cell viability assay.

EW-16 = type: functional, cell-based, Homo sapiens; details: Homo sapiens, EW-16;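 also: growth inhibition of human EW-16 cells, read out as cell viability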
Description: SANGER: Inhibition of human EW-16 cell growth in a cell viability assay.

GAK = type: functional, cell-based, Homo sapiens; details: Homo sapiens, GAK;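 also: cell growth inhibition read out by a cell viability assay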
Description: SANGER: Inhibition of human GAK cell growth in a cell viability assay.

GI-ME-N = type: functional, cell-based, Homo sapiens; details: Homo sapiens, GI-ME-N;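 also: growth inhibition of human GI-ME-N cells, read out with a cell viability assay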
Description: SANGER: Inhibition of human GI-ME-N cell growth in a cell viability assay.

HCC2218 = type: functional, cell-based; details: Homo sapiens;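 also: cell viability assay read-out, with IC50 given as the concentration that inhibits growth of the cell line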
Description: SANGER: Inhibition of human HCC2218 cell growth in a cell viability assay.

HCE-T = type: functional, cell-based, Homo sapiens; details: Homo sapiens, HCE-T;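 also: cell viability assay read-out, reporting inhibition of HCE-T cell growth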
Description: SANGER: Inhibition of human HCE-T cell growth in a cell viability assay.

HD-MY-Z = type: functional, cell-based, Homo sapiens; details: Homo sapiens, HD-MY-Z;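 also: growth inhibition of HD-MY-Z cells, read out with a cell viability assay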
Description: SANGER: Inhibition of human HD-MY-Z cell growth in a cell viability assay.

HOP-62 = type: functional, cell-based, Homo sapiens; details: Homo sapiens, HOP-62;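 also: cell growth inhibition determined with a viability assay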
Description: SANGER: Inhibition of human HOP-62 cell growth in a cell viability assay.

IST-MES1 = type: functional, cell-based, Homo sapiens; details: Homo sapiens, IST-MES1;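 also: growth inhibition of IST-MES1 cells, measured with a cell viability assay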
Description: SANGER: Inhibition of human IST-MES1 cell growth in a cell viability assay.

KARPAS-299 = type: functional, cell-based; details: Homo sapiens
Description: SANGER: Inhibition of human KARPAS-299 cell growth in a cell viability assay.

KP-N-YN = type: functional, cell-based; details: Homo sapiens;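 also: growth inhibition of KP-N-YN cells, read out with a cell viability assay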
Description: SANGER: Inhibition of human KP-N-YN cell growth in a cell viability assay.

L-363 = type: functional, cell-based; details: Homo sapiens
Description: SANGER: Inhibition of human L-363 cell growth in a cell viability assay.

LB1047-RCC = type: functional, cell-based, Homo sapiens; details: Homo sapiens, LB1047-RCC;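 also: inhibition of cell growth, determined with a cell viability assay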
Description: SANGER: Inhibition of human LB1047-RCC cell growth in a cell viability assay.

MZ7-mel = type: functional, cell-based, Homo sapiens; details: Homo sapiens, MZ7-mel;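 also: growth inhibition of human MZ7-mel cells, measured by a cell viability assay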
Description: SANGER: Inhibition of human MZ7-mel cell growth in a cell viability assay.

NB14 = type: functional, cell-based; details: Homo sapiens;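 also: growth inhibition of NB14 cells measured with a cell viability assay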
Description: SANGER: Inhibition of human NB14 cell growth in a cell viability assay.

NB6 = type: functional, cell-based, Homo sapiens; details: Homo sapiens, NB6;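 also: growth inhibition of NB6 cells, read out by a cell viability assay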
Description: SANGER: Inhibition of human NB6 cell growth in a cell viability assay.

NOMO-1 = type: functional, cell-based; details: Homo sapiens;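 also: growth inhibition of human NOMO-1 cells measured by a cell viability assay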
Description: SANGER: Inhibition of human NOMO-1 cell growth in a cell viability assay.

OCI-AML2 = type: functional, cell-based; details: Homo sapiens;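 also: growth inhibition of OCI-AML2 cells, read out with a cell viability assay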
Description: SANGER: Inhibition of human OCI-AML2 cell growth in a cell viability assay.

RPMI-8226 = type: functional, cell-based; details: Homo sapiens
Description: SANGER: Inhibition of human RPMI-8226 cell growth in a cell viability assay.

RXF 393 = type: functional, cell-based; details: Homo sapiens;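 also: growth inhibition of human RXF 393 cells, read out with a cell viability assay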
Description: SANGER: Inhibition of human RXF393 cell growth in a cell viability assay.

SBC-1 = type: functional, cell-based; details: Homo sapiens;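 also: cell viability assay measuring growth inhibition of the SBC-1 cell line, IC50 being the concentration that halves growth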
Description: SANGER: Inhibition of human SBC-1 cell growth in a cell viability assay.

SK-MEL-2 = type: functional, cell-based, Homo sapiens; details: Homo sapiens, SK-MEL-2;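 also: growth inhibition of human SK-MEL-2 cells measured with a cell viability assay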
Description: SANGER: Inhibition of human SK-MEL-2 cell growth in a cell viability assay.

BB30-HNC = type: functional, cell-based, Homo sapiens; details: Homo sapiens, BB30-HNC;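 also: growth inhibition of the cultured cell line, read out by a cell viability assay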
Description: SANGER: Inhibition of human BB30-HNC cell growth in a cell viability assay.

Becker = type: functional, cell-based, Homo sapiens; details: Homo sapiens, Becker;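 also: growth inhibition of Becker cells, read out with a cell viability assay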
Description: SANGER: Inhibition of human Becker cell growth in a cell viability assay.

TE-10 = type: functional, cell-based, Homo sapiens; details: Homo sapiens, TE-10;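 also: growth inhibition of TE-10 cells, measured by a cell viability assay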
Description: SANGER: Inhibition of human TE-10 cell growth in a cell viability assay.

TE-9 = type: functional, cell-based, Homo sapiens; details: Homo sapiens, TE-9;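 also: cell growth inhibition, measured with a cell viability readout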
Description: SANGER: Inhibition of human TE-9 cell growth in a cell viability assay.

KURAMOCHI = type: functional, cell-based; details: Homo sapiens;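 also: growth inhibition of KURAMOCHI cells, read out with a cell viability assay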
Description: SANGER: Inhibition of human KURAMOCHI cell growth in a cell viability assay.

Row | SMILES | IC50 (COLO-829) | IC50 (EKVX) | IC50 (ES8) | IC50 (EW-16) | IC50 (GI-ME-N) | IC50 (HCC2218) | IC50 (HCE-T) | IC50 (HD-MY-Z) | IC50 (HOP-62) | IC50 (IST-MES1) | IC50 (KARPAS-299) | IC50 (L-363) | IC50 (LB1047-RCC) | IC50 (MZ7-mel) | IC50 (NB14) | IC50 (NB6) | IC50 (NOMO-1) | IC50 (OCI-AML2) | IC50 (RPMI-8226) | IC50 (RXF 393) | also measured
1 | CC1=C2C[C@H]3[C@@H](CC=C4C[C@@H](O)CC[C@@]43C)[C@@H]2CC[C@]12O[C@@H]1C[C@H](C)CN[C@H]1[C@H]2C [CYCLOPAMINE] | > 16000 nM | > 16000 nM | > 16000 nM | > 16000 nM | > 16000 nM | > 16000 nM | > 16000 nM | > 16000 nM | > 16000 nM | > 16000 nM | > 16000 nM | > 16000 nM | > 16000 nM | > 16000 nM | > 16000 nM | > 16000 nM | > 16000 nM | > 16000 nM | > 16000 nM | > 16000 nM | IC50 (GAK): > 16000 nM; IC50 (KP-N-YN): > 16000 nM; IC50 (SBC-1): > 16000 nM; IC50 (SK-MEL-2): > 16000 nM; IC50 (BB30-HNC): > 16000 nM; IC50 (Becker): > 16000 nM; IC50 (TE-10): > 16000 nM; IC50 (TE-9): > 16000 nM
2 | CS(=O)(=O)CCNCc1ccc(-c2ccc3ncnc(Nc4ccc(OCc5cccc(F)c5)c(Cl)c4)c3c2)o1 [LAPATINIB] | > 2000 nM | 449 nM | > 2000 nM | > 2000 nM | > 2000 nM | 53.3 nM | > 2000 nM | > 2000 nM | > 2000 nM | > 2000 nM | > 2000 nM | > 2000 nM | > 2000 nM | > 2000 nM | > 2000 nM | > 2000 nM | > 2000 nM | > 2000 nM | > 2000 nM | > 2000 nM | IC50 (KURAMOCHI): > 2000 nM; IC50 (SBC-1): > 2000 nM; IC50 (SK-MEL-2): > 2000 nM; IC50 (BB30-HNC): 247 nM; IC50 (Becker): > 2000 nM; IC50 (TE-10): > 2000 nM; IC50 (TE-9): 745 nM
3 | CCc1nc(N)nc(N)c1-c1ccc(Cl)cc1 [PYRIMETHAMINE] | 7280 nM | > 20000 nM | 897 nM | 15800 nM | 1400 nM | > 20000 nM | > 20000 nM | 11900 nM | 5020 nM | > 20000 nM | > 20000 nM | > 20000 nM | > 20000 nM | 7560 nM | > 20000 nM | > 20000 nM | > 20000 nM | 8500 nM | > 20000 nM | > 20000 nM | IC50 (GAK): > 20000 nM; IC50 (KP-N-YN): > 20000 nM; IC50 (KURAMOCHI): > 20000 nM; IC50 (SBC-1): > 20000 nM; IC50 (SK-MEL-2): > 20000 nM; IC50 (BB30-HNC): > 20000 nM; IC50 (Becker): > 20000 nM; IC50 (TE-10): > 20000 nM; IC50 (TE-9): > 20000 nM
4 | CN1CCN(CCOc2cc(OC3CCOCC3)c3c(Nc4c(Cl)ccc5c4OCO5)ncnc3c2)CC1 [SARACATINIB] | […] | […] | […] | 1550 nM | […] | […] | […] | […] | 1500 nM | […] | […] | […] | 1550 nM | […] | […] | […] | […] | […] | […] | 1240 nM | IC50 (GAK): […]; IC50 (KURAMOCHI): […]; IC50 (SBC-1): […]; IC50 (SK-MEL-2): […]; IC50 (BB30-HNC): 862 nM; IC50 (Becker): […]; IC50 (TE-10): 1660 nM; IC50 (TE-9): […]
